Reference: ChEMBL document CHEMBL1909046, “DrugMatrix in vitro pharmacology data”
pIC50, pKi: −log10 of the molar value.

Columns and labels:
[1] = biological target: T1, Alpha-2A adrenergic receptor (Homo sapiens, UniProt P08913); format: cell membranes, Sf9, Membrane; details: for IC50: sf9; for all read-outs here: in other assays of this panel Not Active means under 50% inhibition at 10 µM
T1 sequence (P08913 whole entry): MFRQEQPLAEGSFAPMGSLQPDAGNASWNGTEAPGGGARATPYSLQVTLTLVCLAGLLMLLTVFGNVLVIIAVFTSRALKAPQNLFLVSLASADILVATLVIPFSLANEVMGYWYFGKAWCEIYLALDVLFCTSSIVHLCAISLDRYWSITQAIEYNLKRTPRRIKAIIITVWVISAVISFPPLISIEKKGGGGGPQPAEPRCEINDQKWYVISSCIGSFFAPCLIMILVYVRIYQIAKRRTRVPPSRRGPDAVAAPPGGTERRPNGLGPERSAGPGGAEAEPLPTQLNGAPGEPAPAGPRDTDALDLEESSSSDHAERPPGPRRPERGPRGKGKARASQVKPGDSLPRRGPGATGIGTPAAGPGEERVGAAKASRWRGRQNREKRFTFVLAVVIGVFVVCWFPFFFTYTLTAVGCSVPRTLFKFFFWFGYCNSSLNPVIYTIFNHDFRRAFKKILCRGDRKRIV

[2] = DRUGMATRIX: Calcium Channel Type L, Phenylalkylamine radioligand binding (ligand: [3H] (-)-Desmethoxyverapamil (D-888)); format: cell membranes, Rattus norvegicus, Wistar, Brain, Membrane; details: Not Active = under 50% inhibition at 10 µM
[3] = biological target: T2, Amine oxidase [flavin-containing] A (Homo sapiens, UniProt P21397); assay: DRUGMATRIX: Monoamine Oxidase MAO-A enzyme inhibition (substrate: Kynuramine); design: species or system BTI-TN-5B1-4; details: bti-tn-5b1-4; Not Active = under 50% inhibition at 10 µM
T2 sequence (P21397 whole entry): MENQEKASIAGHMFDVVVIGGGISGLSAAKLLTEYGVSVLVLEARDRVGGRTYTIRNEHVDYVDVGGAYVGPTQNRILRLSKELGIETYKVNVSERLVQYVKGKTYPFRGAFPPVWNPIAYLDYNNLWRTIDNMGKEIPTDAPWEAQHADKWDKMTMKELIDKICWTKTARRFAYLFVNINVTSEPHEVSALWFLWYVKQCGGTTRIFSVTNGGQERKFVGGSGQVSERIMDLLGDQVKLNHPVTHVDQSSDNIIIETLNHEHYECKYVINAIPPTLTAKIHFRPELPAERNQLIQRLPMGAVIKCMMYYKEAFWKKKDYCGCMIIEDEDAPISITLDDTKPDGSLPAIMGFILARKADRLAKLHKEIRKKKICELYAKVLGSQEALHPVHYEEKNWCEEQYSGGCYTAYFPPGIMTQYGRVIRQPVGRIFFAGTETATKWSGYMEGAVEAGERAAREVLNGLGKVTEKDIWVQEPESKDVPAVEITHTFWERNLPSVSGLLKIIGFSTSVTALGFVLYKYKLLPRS

[4] = biological target: T3, Muscarinic acetylcholine receptor M2 (Homo sapiens, UniProt P08172); format: cell membranes, CHO-K1, Membrane; details: cho-k1; note: in other assays of this panel Not Active means under 50% inhibition at 10 µM
T3 sequence (P08172 whole entry): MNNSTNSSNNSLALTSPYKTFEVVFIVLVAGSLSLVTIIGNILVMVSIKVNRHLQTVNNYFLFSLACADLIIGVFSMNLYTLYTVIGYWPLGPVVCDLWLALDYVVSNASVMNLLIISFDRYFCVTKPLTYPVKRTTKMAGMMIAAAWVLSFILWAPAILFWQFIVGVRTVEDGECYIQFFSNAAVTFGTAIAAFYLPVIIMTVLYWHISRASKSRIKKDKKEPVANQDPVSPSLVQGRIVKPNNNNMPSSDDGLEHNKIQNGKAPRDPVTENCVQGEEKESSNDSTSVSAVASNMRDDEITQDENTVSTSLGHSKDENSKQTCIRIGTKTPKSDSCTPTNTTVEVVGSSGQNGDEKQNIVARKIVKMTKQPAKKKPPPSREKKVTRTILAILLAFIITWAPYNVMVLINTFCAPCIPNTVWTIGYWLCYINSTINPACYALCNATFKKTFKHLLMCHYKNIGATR

Interstitial collagenase = biological target: T4, Interstitial collagenase (Homo sapiens, UniProt P03956); format: tissue-based, Rheumatoid synovial fibroblasts;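 note: MMP-1 enzyme inhibition assay using a peptide substrate; in other assays of this panel Not Active means under 50% inhibition at 10 µM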
T4 sequence (P03956 whole entry): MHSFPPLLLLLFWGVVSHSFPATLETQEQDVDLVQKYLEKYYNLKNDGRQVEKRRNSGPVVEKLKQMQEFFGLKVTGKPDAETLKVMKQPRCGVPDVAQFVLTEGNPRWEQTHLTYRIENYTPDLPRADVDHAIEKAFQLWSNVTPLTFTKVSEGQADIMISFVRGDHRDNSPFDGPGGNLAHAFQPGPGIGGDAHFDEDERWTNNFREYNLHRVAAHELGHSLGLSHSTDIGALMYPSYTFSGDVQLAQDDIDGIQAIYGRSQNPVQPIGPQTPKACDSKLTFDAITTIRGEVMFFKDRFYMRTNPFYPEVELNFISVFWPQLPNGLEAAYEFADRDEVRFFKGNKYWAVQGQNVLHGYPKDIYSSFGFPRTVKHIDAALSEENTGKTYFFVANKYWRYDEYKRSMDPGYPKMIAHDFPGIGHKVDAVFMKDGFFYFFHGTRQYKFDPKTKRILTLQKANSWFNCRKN

Adenosine receptor A3 = biological target: T5, Adenosine receptor A3 (Homo sapiens, UniProt P0DMS8); format: cell membranes, CHO-K1, Membrane; details: for pIC50: read-out: IC50; for pKi: read-out: Ki; for IC50: cho-k1;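 for all read-outs here: radioligand binding assay with AB-MECA serving as the labeled ligand; in other assays of this panel Not Active means under 50% inhibition at 10 µM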
T5 sequence (P0DMS8 whole entry): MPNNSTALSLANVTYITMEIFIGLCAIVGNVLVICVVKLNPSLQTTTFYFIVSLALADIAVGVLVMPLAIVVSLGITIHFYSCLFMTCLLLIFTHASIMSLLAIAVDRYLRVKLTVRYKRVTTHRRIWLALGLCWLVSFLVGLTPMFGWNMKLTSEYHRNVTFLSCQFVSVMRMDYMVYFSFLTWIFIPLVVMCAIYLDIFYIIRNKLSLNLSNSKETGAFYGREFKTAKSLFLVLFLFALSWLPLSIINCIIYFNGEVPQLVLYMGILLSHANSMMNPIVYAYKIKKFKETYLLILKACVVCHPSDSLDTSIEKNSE

| SMILES | IC50 [1] | IC50 [2] | Ki [2] | IC50 [3] | IC50 [4] | IC50 (Interstitial collagenase) | pIC50 (Adenosine receptor A3) | pKi (Adenosine receptor A3) | IC50 (Adenosine receptor A3) | pIC50 ([1]; read-out: IC50) | pKi ([1]; read-out: Ki) |
| --- | --- | --- | --- | --- | --- | --- | --- | --- | --- | --- | --- |
| C[C@]12Cc3c[nH]nc3C[C@@H]1CC[C@@H]1[C@@H]2CC[C@@]2(C)[C@H]1CC[C@]2(C)O [STANOZOLOL] | Not Active | Not Active | Not Active | Not Active | Not Active | Not Active | 5.08 | 5.33 | – | – | – |
| NCCCC[C@H](N[C@@H](CCc1ccccc1)C(=O)O)C(=O)N1CCC[C@H]1C(=O)O [LISINOPRIL ANHYDROUS] | Not Active | Not Active | Not Active | Not Active | Not Active | Not Active | – | – | Not Active | – | – |
| CC(=O)S[C@@H]1CC2=CC(=O)CC[C@]2(C)[C@H]2CC[C@@]3(C)[C@@H](CC[C@@]34CCC(=O)O4)[C@H]12 [SPIRONOLACTONE] | Not Active | Not Active | Not Active | Not Active | Not Active | Not Active | – | – | Not Active | – | – |
| CN(C)[C@@H]1C(O)=C(C(N)=O)C(=O)[C@@]2(O)C(O)=C3C(=O)c4c(O)cccc4[C@@](C)(O)[C@H]3C[C@@H]12 [TETRACYCLINE] | Not Active | Not Active | Not Active | Not Active | Not Active | Not Active | – | – | Not Active | – | – |
| Nc1ccc(S(=O)(=O)Nc2ccnn2-c2ccccc2)cc1 [SULFAPHENAZOLE] | Not Active | Not Active | Not Active | Not Active | Not Active | Not Active | – | – | Not Active | – | – |
| COc1c(C)c2c(c(O)c1C/C=C(\C)CCC(=O)OCCN1CCOCC1)C(=O)OC2 [MYCOPHENOLATE MOFETIL] | Not Active | Not Active | Not Active | Not Active | Not Active | Not Active | – | – | Not Active | – | – |
| Nc1nnc(-c2cccc(Cl)c2Cl)c(N)n1 [LAMOTRIGINE] | Not Active | Not Active | Not Active | Not Active | Not Active | Not Active | – | – | Not Active | – | – |
| NC(=O)c1ccccc1O [SALICYLAMIDE] | Not Active | Not Active | Not Active | Not Active | Not Active | Not Active | – | – | Not Active | – | – |
| C=CC[C@@H]1/C=C(\C)C[C@H](C)C[C@H](OC)[C@H]2O[C@@](O)(C(=O)C(=O)N3CCCC[C@H]3C(=O)O[C@H](/C(C)=C/[C@@H]3CC[C@@H](O)[C@H](OC)C3)[C@H](C)[C@@H](O)CC1=O)[C@H](C)C[C@@H]2OC [TACROLIMUS ANHYDROUS] | Not Active | Not Active | Not Active | Not Active | Not Active | Not Active | – | – | Not Active | – | – |
| c1ccc2[nH]c(-c3cscn3)nc2c1 [THIABENDAZOLE] | Not Active | Not Active | Not Active | Not Active | Not Active | Not Active | – | – | Not Active | – | – |
| COc1ccc(C(CN(C)C)C2(O)CCCCC2)cc1 (stereo unspecified) [VENLAFAXINE] | Not Active | Not Active | Not Active | Not Active | Not Active | Not Active | – | – | Not Active | – | – |
| CC(C)(C)NC(=O)[C@@H]1CN(Cc2cccnc2)CCN1C[C@@H](O)C[C@@H](Cc1ccccc1)C(=O)N[C@H]1c2ccccc2C[C@H]1O.O | Not Active | Not Active | Not Active | Not Active | Not Active | Not Active | – | – | Not Active | – | – |
| Clc1ccc(C(c2ccccc2Cl)C(Cl)Cl)cc1 (stereo unspecified) [MITOTANE] | – | Not Active | Not Active | Not Active | Not Active | Not Active | 5.13 | 5.38 | – | 5.13 | 5.56 |
| Oc1c(I)cc(I)c2cccnc12 [IODOQUINOL] | Not Active | Not Active | Not Active | Not Active | Not Active | Not Active | 6.03 | 6.28 | – | – | – |
| CN[C@@H]1[C@@H](O)[C@@H](O[C@@H]2[C@@H](O)[C@H](O[C@H]3OC(CN)=CC[C@H]3N)[C@@H](N)C[C@H]2N)OC[C@]1(C)O [SISOMICIN] | Not Active | Not Active | Not Active | Not Active | Not Active | Not Active | – | – | Not Active | – | – |
| NNc1ccccc1 [PHENYLHYDRAZINE] | Not Active | Not Active | Not Active | Not Active | Not Active | Not Active | – | – | Not Active | – | – |
